Measurements from patent US12606541B2, “PPARg modulators and methods of use” (Eisai R&D Management Co., Ltd., priority 2020, dated 2026).

Target: T1, His6-TEV-PPARγ-(234-505) (Homo sapiens, UniProt P37231)
T1 construct: The His6-TEV-PPARγ-(234-505) protein for assay was expressed and purified; TEV cleavage site (N); made in house
T1 sequence (P37231 234-505): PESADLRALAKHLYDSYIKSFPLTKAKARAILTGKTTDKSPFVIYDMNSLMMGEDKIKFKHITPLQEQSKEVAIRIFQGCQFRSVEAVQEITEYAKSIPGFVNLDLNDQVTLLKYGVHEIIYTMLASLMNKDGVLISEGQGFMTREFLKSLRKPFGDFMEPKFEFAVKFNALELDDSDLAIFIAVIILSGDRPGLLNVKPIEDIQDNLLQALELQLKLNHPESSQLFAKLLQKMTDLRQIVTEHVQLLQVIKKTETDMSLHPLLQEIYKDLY
Assay: TR-FRET Assay to Measure Co-R Peptide Recruitment to PPARγ
Type: biochemical
Conditions: Co-R peptide recruitment to PPARγ; read-out: TR-FRET AC50
Summary of the method: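 Corepressor recruitment is measured by adding terbium-labeled anti-His antibody and FITC SMRT-ID2 peptide, at 5 and 200 nM final, after a 20-minute room-temperature protein–compound incubation. After one further hour, signal is converted to percent response between DMSO and 500 nM T0070907 wells.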

Row | SMILES | AC50 [nM]
1 | CCC1(CNC(=O)C2CCN(C(=O)c3cc(-c4cc(OC)ncc4Cl)[nH]n3)CC2)COC1 [1-[5-(5-chloro-2-methoxypyridin-4-yl)-1H-pyrazole-3-carbonyl]-N-[(3-ethyloxetane-3-yl)methyl]piperidine-4-carboxamide] | > 1000
2 | COc1cc(-c2cc(C(=O)N3CCC(C(=O)NCC4(F)COC4)CC3)n[nH]2)c(Cl)cn1 [1-[5-(5-chloro-2-methoxypyridin-4-yl)-1H-pyrazole-3-carbonyl]-N-[(3-fluorooxetan-3-yl)methyl]piperidine-4-carboxamide] | > 1000
3 | COc1cc(-c2cc(C(=O)N3CCC(C(=O)NCC4(C)COC4)CC3)n[nH]2)c(Cl)cn1 [1-[5-(5-chloro-2-methoxypyridin-4-yl)-1H-pyrazole-3-carbonyl]-N-[(3-methyloxetan-3-yl)methyl]piperidine-4-carboxamide] | > 1000
4 | COc1cc(-c2cc(C(=O)N3CCC(C(=O)NCC4(C)CCOC4)CC3)n[nH]2)c(Cl)cn1 (stereo not shown) [1-[5-(5-chloro-2-methoxypyridin-4-yl)-1H-pyrazole-3-carbonyl]-N-[(3-methyloxolan-3-yl)methyl]piperidine-4-carboxamide] | > 1000
5 | COc1cc(-c2cc(C(=O)N3CCC(C(=O)NCC4CC(F)(F)C(=O)N4)CC3)n[nH]2)c(Cl)cn1 (stereo not shown) [1-[5-(5-chloro-2-methoxypyridin-4-yl)-1H-pyrazole-3-carbonyl]-N-[(4,4-difluoro-5-oxopyrrolidin-2-yl)methyl]piperidine-4-carboxamide] | > 1000
6 | COc1cc(-c2cc(C(=O)N3CCC(C(=O)NCc4nc(C)c(C)s4)CC3)n[nH]2)c(Cl)cn1 [1-[5-(5-chloro-2-methoxypyridin-4-yl)-1H-pyrazole-3-carbonyl]-N-[(4,5-dimethyl-1,3-thiazol-2-yl)methyl]piperidine-4-carboxamide] | > 1000
7 | COc1cc(-c2cc(C(=O)N3CCC(C(=O)NCc4c(C)cc(C)[nH]c4=O)CC3)n[nH]2)c(Cl)cn1 [1-[5-(5-chloro-2-methoxypyridin-4-yl)-1H-pyrazole-3-carbonyl]-N-[(4,6-dimethyl-2-oxo-1,2-dihydropyridin-3-yl)methyl]piperidine-4-carboxamide] | > 1000
8 | COc1cc(-c2cc(C(=O)N3CCC(C(=O)NCc4cc(Cl)ccn4)CC3)n[nH]2)c(Cl)cn1 [1-[5-(5-chloro-2-methoxypyridin-4-yl)-1H-pyrazole-3-carbonyl]-N-[(4-chloropyridin-2-yl)methyl]piperidine-4-carboxamide] | > 1000
9 | COc1cc(-c2cc(C(=O)N3CCC(C(=O)NCc4cc(C#N)ccn4)CC3)n[nH]2)c(Cl)cn1 [1-[5-(5-chloro-2-methoxypyridin-4-yl)-1H-pyrazole-3-carbonyl]-N-[(4-cyanopyridin-2-yl)methyl]piperidine-4-carboxamide] | > 1000
10 | COc1cc(-c2cc(C(=O)N3CCC(C(=O)NCc4cc(F)ccn4)CC3)n[nH]2)c(Cl)cn1 [1-[5-(5-chloro-2-methoxypyridin-4-yl)-1H-pyrazole-3-carbonyl]-N-[(4-fluoropyridin-2-yl)methyl]piperidine-4-carboxamide] | > 1000
11 | COc1cc(-c2cc(C(=O)N3CCC(C(=O)NCC4(O)CCOCC4)CC3)n[nH]2)c(Cl)cn1 [1-[5-(5-chloro-2-methoxypyridin-4-yl)-1H-pyrazole-3-carbonyl]-N-[(4-hydroxyoxan-4-yl)methyl]piperidine-4-carboxamide] | > 1000
12 | COc1cc(-c2cc(C(=O)N3CCC(C(=O)NCC4CN(C)CCO4)CC3)n[nH]2)c(Cl)cn1 (stereo not shown) [1-[5-(5-chloro-2-methoxypyridin-4-yl)-1H-pyrazole-3-carbonyl]-N-[(4-methylmorpholin-2-yl)methyl]piperidine-4-carboxamide] | > 1000
13 | COc1cc(-c2cc(C(=O)N3CCC(C(=O)NCc4cc(C)ccn4)CC3)n[nH]2)c(Cl)cn1 [1-[5-(5-chloro-2-methoxypyridin-4-yl)-1H-pyrazole-3-carbonyl]-N-[(4-methylpyridine-2-yl)methyl]piperidine-4-carboxamide] | > 1000
14 | COc1cc(-c2cc(C(=O)N3CCC(C(=O)NCc4n[nH]c(=O)c5ccccc45)CC3)n[nH]2)c(Cl)cn1 [1-[5-(5-chloro-2-methoxypyridin-4-yl)-1H-pyrazole-3-carbonyl]-N-[(4-oxo-3,4-dihydrophthalazin-1-yl)methyl]piperidine-4-carboxamide] | > 1000
15 | COc1cc(-c2cc(C(=O)N3CCC(C(=O)N[C@@H]4CCOc5c(F)ccc(F)c54)CC3)n[nH]2)c(Cl)cn1 [1-[5-(5-chloro-2-methoxypyridin-4-yl)-1H-pyrazole-3-carbonyl]-N-[(4R)-5,8-difluoro-3,4-dihydro-2H-1-benzopyran-4-yl]piperidine-4-carboxamide] | > 1000
16 | COc1cc(-c2cc(C(=O)N3CCC(C(=O)NCc4noc(C)n4)CC3)n[nH]2)c(Cl)cn1 [1-[5-(5-chloro-2-methoxypyridin-4-yl)-1H-pyrazole-3-carbonyl]-N-[(5-methyl-1,2,4-oxadiazol-3-yl)methyl]piperidine-4-carboxamide] | > 1000

Row | SMILES | AC50 [nM]
17 | COc1cc(-c2cc(C(=O)N3CCC(C(=O)NCc4cc(C)on4)CC3)n[nH]2)c(Cl)cn1 [1-[5-(5-chloro-2-methoxypyridin-4-yl)-1H-pyrazole-3-carbonyl]-N-[(5-methyl-1,2-oxazol-3-yl)methyl]piperidine-4-carboxamide] | > 1000
18 | COc1cc(-c2cc(C(=O)N3CCC(C(=O)NCc4cnc(C)cn4)CC3)n[nH]2)c(Cl)cn1 [1-[5-(5-chloro-2-methoxypyridin-4-yl)-1H-pyrazole-3-carbonyl]-N-[(5-methylpyrazin-2-yl)methyl]piperidine-4-carboxamide] | > 1000
19 | COc1cc(-c2cc(C(=O)N3CCC(C(=O)NCc4ccc(C#N)nc4)CC3)n[nH]2)c(Cl)cn1 [1-[5-(5-chloro-2-methoxypyridin-4-yl)-1H-pyrazole-3-carbonyl]-N-[(6-cyanopyridin-3-yl)methyl]piperidine-4-carboxamide] | > 1000
20 | COc1ccc(CNC(=O)C2CCN(C(=O)c3cc(-c4cc(OC)ncc4Cl)[nH]n3)CC2)cn1 [1-[5-(5-chloro-2-methoxypyridin-4-yl)-1H-pyrazole-3-carbonyl]-N-[(6-methoxypyridin-3-yl)methyl]piperidine-4-carboxamide] | > 1000
21 | COc1cc(-c2cc(C(=O)N3CCC(C(=O)NCc4cccc(C)n4)CC3)n[nH]2)c(Cl)cn1 [1-[5-(5-chloro-2-methoxypyridin-4-yl)-1H-pyrazole-3-carbonyl]-N-[(6-methylpyridin-2-yl)methyl]piperidine-4-carboxamide] | > 1000
22 | COc1cc(-c2cc(C(=O)N3CCC(C(=O)NCc4ccc(C)nc4)CC3)n[nH]2)c(Cl)cn1 [1-[5-(5-chloro-2-methoxypyridin-4-yl)-1H-pyrazole-3-carbonyl]-N-[(6-methylpyridin-3-yl)methyl]piperidine-4-carboxamide] | > 1000
23 | COc1cc(-c2cc(C(=O)N3CCC(C(=O)NCc4cccc(=O)[nH]4)CC3)n[nH]2)c(Cl)cn1 [1-[5-(5-chloro-2-methoxypyridin-4-yl)-1H-pyrazole-3-carbonyl]-N-[(6-oxo-1,6-dihydropyridin-2-yl)methyl]piperidine-4-carboxamide] | > 1000
24 | COc1cc(-c2cc(C(=O)N3CCC(C(=O)NCc4ccc(=O)[nH]c4)CC3)n[nH]2)c(Cl)cn1 [1-[5-(5-chloro-2-methoxypyridin-4-yl)-1H-pyrazole-3-carbonyl]-N-[(6-oxo-1,6-dihydropyridin-3-yl)methyl]piperidine-4-carboxamide] | > 1000
25 | COc1cc(-c2cc(C(=O)N3CCC(C(=O)NCc4nccc(=O)[nH]4)CC3)n[nH]2)c(Cl)cn1 [1-[5-(5-chloro-2-methoxypyridin-4-yl)-1H-pyrazole-3-carbonyl]-N-[(6-oxo-1,6-dihydropyrimidin-2-yl)methyl]piperidine-4-carboxamide] | > 1000
26 | COc1cc(-c2cc(C(=O)N3CCC(C(=O)N[C@@H]4CCCc5cccnc54)CC3)n[nH]2)c(Cl)cn1 [1-[5-(5-chloro-2-methoxypyridin-4-yl)-1H-pyrazole-3-carbonyl]-N-[(8R)-5,6,7,8-tetrahydroquinolin-8-yl]piperidine-4-carboxamide] | > 1000
27 | COc1cc(-c2cc(C(=O)N3CCC(C(=O)N[C@H]4CCCc5cccnc54)CC3)n[nH]2)c(Cl)cn1 [1-[5-(5-chloro-2-methoxypyridin-4-yl)-1H-pyrazole-3-carbonyl]-N-[(8S)-5,6,7,8-tetrahydroquinolin-8-yl]piperidine-4-carboxamide] | > 1000
28 | COc1cc(-c2cc(C(=O)N3CCC(C(=O)NCC4CCCCO4)CC3)n[nH]2)c(Cl)cn1 (stereo not shown) [1-[5-(5-chloro-2-methoxypyridin-4-yl)-1H-pyrazole-3-carbonyl]-N-[(oxan-2-yl)methyl]piperidine-4-carboxamide] | > 1000
29 | COc1cc(-c2cc(C(=O)N3CCC(C(=O)NCC4CCCOC4)CC3)n[nH]2)c(Cl)cn1 (stereo not shown) [1-[5-(5-chloro-2-methoxypyridin-4-yl)-1H-pyrazole-3-carbonyl]-N-[(oxan-3-yl)methyl]piperidine-4-carboxamide] | > 1000
30 | COc1cc(-c2cc(C(=O)N3CCC(C(=O)NCC4CCCO4)CC3)n[nH]2)c(Cl)cn1 (stereo not shown) [1-[5-(5-chloro-2-methoxypyridin-4-yl)-1H-pyrazole-3-carbonyl]-N-[(oxolan-2-yl)methyl]piperidine-4-carboxamide] | > 1000
31 | COc1cc(-c2cc(C(=O)N3CCC(C(=O)NCc4cnccn4)CC3)n[nH]2)c(Cl)cn1 [1-[5-(5-chloro-2-methoxypyridin-4-yl)-1H-pyrazole-3-carbonyl]-N-[(pyrazin-2-yl)methyl]piperidine-4-carboxamide] | > 1000
